# Experimental data from patent US20240226048A1, “METHODS OF TREATMENT USING BEMPEDOIC ACID” (Esperion Therapeutics, Inc., priority 2023, published 2024).
# Assay: CLEAR OUTCOMES trial: time-to-event cardiovascular efficacy end points
# Format: in vivo, human
# Details: for Primary efficacy endpoint (MACE-4), Hazard Ratio (95% CI): Cox proportional hazards, P 0.004; for Fatal and non-fatal MI, Hazard Ratio (95% CI): P 0.002; for 3-component MACE, Hazard Ratio (95% CI): P 0.006
# Description: The CLEAR OUTCOMES trial was a randomized, placebo-controlled, double-blind trial that enrolled patients at 1250 sites in 32 countries. An independent Data Monitoring Committee reviewed safety and efficacy data during the trial.
# Patients 18 to 85 years of age were eligible for enrollment if they met either of two criteria for increased cardiovascular risk, a prior cardiovascular event (secondary prevention) or clinical features that placed them at high risk for a cardiovascular event (primary prevention). (Nicholls S, Lincoff A M, Bays H E, et al. Rationale and design of the CLEAR-outcomes trial: Evaluating the effect of bempedoic acid on cardiovascular events in patients with statin intolerance. Am Heart J. 2021 May; 235: 104-112) All patients provided written informed consent. Patients had to report statin intolerance due to an adverse effect that started or increased during statin therapy and resolved or improved after statin therapy was discontinued. Patients could be enrolled if they tolerated a very low average daily statin dose (e.g., an average daily dose of rosuvastatin <5 mg, atorvastatin <10 mg, simvastatin <10 mg, lovastatin <20 mg, pravastatin <40 mg, fluvastatin <40 mg, or pitavastatin <2 mg). Other lipid-lowering therapies were permitted, including ezetimibe, niacin, bile acid resins, fibrates, and/or proprotein convertase subtilisin kexin type 9 (PCSK9) inhibitors. Full inclusion and exclusion criteria are provided in Nicholls et al. (Am Heart J. 2021).
# Eligible patients entered a 4-week run-in period during which patients were treated with single-blind placebo. If patients were intolerant to placebo treatment or if adherence was <80% by tablet count, they were not eligible for randomization. Patients who successfully completed the run-in period were randomly assigned in a 1:1 ratio to receive bempedoic acid at an oral dose of 180 mg or matching placebo, administered daily. Beginning 6 months after enrollment, the central laboratory notified the investigator if the patient's LDL-cholesterol level was ≥25% higher than baseline. These patients were counseled on healthy dietary guidelines and reminded to take all lipid-regulating medications. If repeat testing confirmed that LDL-cholesterol value met the threshold criteria, the provider could adjust the lipid-lowering treatment regimen per standard of care and local guidelines.
# The primary end point was the first occurrence of a composite of death from cardiovascular causes, nonfatal myocardial infarction (MI), nonfatal stroke, or coronary revascularization. The first key secondary end point was time to the first occurrence of the composite of cardiovascular death, nonfatal stroke or MI. Further key secondary end points included time to first occurrence of each of the following outcomes tested in hierarchical order, fatal or nonfatal MI, coronary revascularization, fatal or nonfatal stroke, death from cardiovascular causes, and all-cause mortality.
# This was an event-driven trial designed to provide at least 90% power to detect a 15% relative risk reduction for the primary composite end point at an overall two-sided significance level of 0.05. The trial required a minimum of 1620 primary composite events with >24 months of follow-up for all patients and at least 810 first key secondary end points. The average treatment duration was estimated to be 42 months and a lost-to-follow-up rate of 1% per year. Assuming a 3.59% annual event rate in the placebo group, enrollment of 12,600 patients was required, subsequently amended to 14,000. There were no interim efficacy analyses. A hierarchical approach was prespecified to evaluate sequentially each of the six key secondary efficacy end points with statistical significance at each step required to test the next hypothesis, thereby preserving the study-wise Type I error rate at 5%. All analyses were based on the intent-to-treat principle. […]
# [1] = prespecified subgroup, interaction P=0.03
# [2] = vs placebo, listed as bempedoic acid
compound,measurement,setting,value
"CC(C)(CCCCCC(O)CCCCCC(C)(C)C(=O)O)C(=O)O [Bempedoic Acid, Bempedoic acid]","3-component MACE, % of patients","180 mg oral daily, N = 6992",8.2%
same,"5 component MACE, % of patients","180 mg oral daily, N = 6992",11.9%
same,"All-cause mortality, % of patients","180 mg oral daily, N = 6992",6.2%
same,"All-cause mortality, nonfatal MI, nonfatal stroke, or coronary revascularization, % of patients","180 mg oral daily, N = 6992",13.8%
same,"All-cause mortality, nonfatal MI, nonfatal stroke, or coronary revascularization, number of patients","180 mg oral daily, N = 6992",962 number of patients
same,"All-cause mortality, number of patients","180 mg oral daily, N = 6992",434 number of patients
same,"Coronary revascularization, % of patients","180 mg oral daily, N = 6992",6.2%
same,"Coronary revascularization, number of patients","180 mg oral daily, N = 6992",435 number of patients
same,"Death from cardiovascular causes, % of patients","180 mg oral daily, N = 6992",3.8%
same,"Death from cardiovascular causes, number of patients","180 mg oral daily, N = 6992",269 number of patients
same,"Fatal MI, % of patients","180 mg oral daily, N = 6992",0.4%
same,"Fatal MI, number of patients","180 mg oral daily, N = 6992",29 number of patients
same,"Fatal and non-fatal MI, % of patients","180 mg oral daily, N = 6992",3.7%
same,"Fatal and non-fatal MI, number of patients","180 mg oral daily, N = 6992",261 number of patients
same,"Fatal and non-fatal stroke, % of patients","180 mg oral daily, N = 6992",1.9%
same,"Fatal and non-fatal stroke, number of patients","180 mg oral daily, N = 6992",135 number of patients
same,"Fatal and nonfatal hemorrhagic stroke, % of patients","180 mg oral daily, N = 6992",0.3%
same,"Fatal and nonfatal hemorrhagic stroke, number of patients","180 mg oral daily, N = 6992",20 number of patients
same,"Fatal and nonfatal non-hemorrhagic stroke, % of patients","180 mg oral daily, N = 6992",1.7%
same,"Fatal and nonfatal non-hemorrhagic stroke, number of patients","180 mg oral daily, N = 6992",118 number of patients
same,"Fatal stroke, % of patients","180 mg oral daily, N = 6992",0.3%
same,"Fatal stroke, number of patients","180 mg oral daily, N = 6992",18 number of patients
same,"Hospitalization for unstable angina, % of patients","180 mg oral daily, N = 6992",1.3%
same,"Hospitalization for unstable angina, number of patients","180 mg oral daily, N = 6992",91 number of patients
same,"Non-fatal MI, % of patients","180 mg oral daily, N = 6992",3.4%
same,"Non-fatal MI, number of patients","180 mg oral daily, N = 6992",236 number of patients
same,"Non-fatal stroke, % of patients","180 mg oral daily, N = 6992",1.7%
same,"Non-fatal stroke, number of patients","180 mg oral daily, N = 6992",119 number of patients
same,"Primary efficacy endpoint (MACE-4), % of patients","180 mg oral daily, N = 6992, median follow-up 40.6 months",11.7%
same,"5 component MACE, number of patients","MACE-4 or hospitalization for unstable angina (MACE-5), 180 mg oral daily, N = 6992",831 number of patients
same,"effect on other key secondary end points: time to first occurrence of stroke, death from cardiovascular causes, all-cause mortality",compared with placebo,no significant effects
same,"Primary efficacy endpoint (MACE-4), number of patients","death from cardiovascular causes, nonfatal MI, nonfatal stroke, or coronary revascularization, 180 mg oral daily, N = 6992, median follow-up 40.6 months",819 number of patients
same,"3-component MACE, number of patients","death from cardiovascular causes, nonfatal MI, or nonfatal stroke (MACE-3), 180 mg oral daily, N = 6992",575 number of patients
same,"New-onset type 2 diabetes mellitus, number of patients","n/N in patients with baseline glycemic status of no diabetes, 180 mg oral daily",429/3848
same,"New-onset type 2 diabetes mellitus, % of patients","patients with baseline glycemic status of no diabetes, 180 mg oral daily",(11.1) %
same,"HR for the primary end point, primary prevention population",[1],0.68
same,"HR for the primary end point, secondary prevention population",[1],0.91
same,"5 component MACE, Hazard Ratio (95% CI)",vs placebo,0.86 (0.78-0.94)
same,"All-cause mortality, Hazard Ratio (95% CI)",vs placebo,1.03 (0.90-1.18)
same,"All-cause mortality, nonfatal MI, nonfatal stroke, or coronary revascularization, Hazard Ratio (95% CI)",vs placebo,0.89 (0.82-0.97)
same,"Death from cardiovascular causes, Hazard Ratio (95% CI)",vs placebo,1.04 (0.88-1.24)
same,"Fatal MI, Hazard Ratio (95% CI)",vs placebo,1.38 (0.79-2.42)
same,"Fatal and non-fatal stroke, Hazard Ratio (95% CI)",vs placebo,0.85 (0.67-1.07)
same,"Fatal and nonfatal hemorrhagic stroke, Hazard Ratio (95% CI)",vs placebo,2.21 (1.01-4.85)
same,"Fatal and nonfatal non-hemorrhagic stroke, Hazard Ratio (95% CI)",vs placebo,0.78 (0.61-0.99)
same,"Fatal stroke, Hazard Ratio (95% CI)",vs placebo,1.12 (0.57-2.20)
same,"Hospitalization for unstable angina, Hazard Ratio (95% CI)",vs placebo,0.66 (0.50-0.86)
same,"Non-fatal stroke, Hazard Ratio (95% CI)",vs placebo,0.82 (0.64-1.05)
same,reduction in coronary revascularization,vs placebo,19%
same,"reduction in the composite of death from cardiovascular causes, stroke or MI",vs placebo,15%
same,reduction in the incidence of fatal or nonfatal MI,vs placebo,23%
same,"reduction in the primary composite end point (death from cardiovascular causes, stroke, MI, or coronary revascularization)",vs placebo,13%
same,"Primary efficacy endpoint (MACE-4), Hazard Ratio (95% CI)",vs placebo,0.87 (0.79-0.96)
same,"Primary efficacy endpoint (MACE-4), Hazard Ratio (95% CI)",[2],0.87
same,"Coronary revascularization, Hazard Ratio (95% CI)","vs placebo, P 0.001",0.81
same,"Fatal and non-fatal MI, Hazard Ratio (95% CI)",vs placebo,0.77 (0.66-0.91)
same,"Fatal and non-fatal MI, Hazard Ratio (95% CI)",[2],0.77
same,"3-component MACE, Hazard Ratio (95% CI)",vs placebo,0.85 (0.76-0.96)
same,"3-component MACE, Hazard Ratio (95% CI)",[2],0.85
same,"New-onset type 2 diabetes mellitus, Hazard Ratio (95% CI)","vs placebo, patients with no diabetes at baseline",0.95 (0.83-1.09)
